Measured values from patent US8975265B2, “Substituted imidazo[1,2-a]pyrimidines and —pyridines” (Bayer Intellectual Property GmbH, priority 2010, dated 2015).

Assays:
[1] = tested on: p-AKT1/2/3-S473 in KPL4 breast tumour cell line; assay: Cellular p-AKT1/2/3-S473 assay; assay type: cell-based; settings: KPL4 breast tumour cell line, 2 hours treatment; read-out: pAKT-S743 median IC50
Procedure: The molecular mechanism of action was investigated in a set of experiments to assess the inhibition of the PI3K-AKT-mTOR pathway in responsive cell lines such as KPL4 breast tumour cell line (PIK3CAH1047R, HER20/E and hormone independent). The phospho-substrates of PI3K-AKT-mTOR axis were used as the read-outs to reflect pathway inhibition. Cells were seeded at 60-80% confluency per well in 96-well cell culture plates. After overnight incubation at 37° C. 5% CO2, cells were treated with compounds and vehicle at 37° C. for 2 hours. […] All measurements where at least done in duplicates and confirmed by independent repetition.
Alternatively pAKT-S473 was measured using the “Akt Duplex” of the MULTI-SPOT® Assay System (Fa. Meso Scale Discovery, Cat# N41100B-1) following manufacturers instructions. Each assay used 20 μg of protein extract and measured total AKT and p-AKT content simultaneously in one well. All measurements where at least done in duplicates and confirmed by independent repetition. Values for P-AKT are expressed as percentage of P-AKT level compared to total-AKT content of the extracts.

[2] = target: His-tagged human recombinant kinase full-length Akt1 (Homo sapiens (Human), UniProt P31749); assay: Akt1 kinase assay (TR-FRET); assay type: biochemical; settings: 10 μM ATP; read-out: Akt1, median IC50
Procedure: Biological Assay 1.0: Akt1 Kinase Assay
Akt1 inhibitory activity of compounds of the present invention was quantified employing the Akt1 TR-FRET assay as described in the following paragraphs.
As substrate for the kinase reaction the biotinylated peptide biotin-Ahx-[…] (C-terminus in amide form) was used which can be purchased e.g. from the company Biosynthan GmbH (Berlin-Buch, Germany).
For the assay 50 nl of a 100 fold concentrated solution of the test compound in DMSO was pipetted into a black low volume 384 well microtiter plate (Greiner Bio-One, Frickenhausen, Germany), 2 μl of a solution of Akt1 in assay buffer [50 mM TRIS/HCl pH 7.5, 5 mM MgCl2, 1 mM dithiothreitol, 0.02% (v/v) Triton X-100 (Sigma)] were added and the mixture was incubated for 15 min at 22° C. to allow prebinding of the test compounds to the enzyme before the start of the kinase reaction. […] The concentration of Akt1 in the assay was adjusted depending of the activity of the enzyme lot and was chosen appropriate to have the assay in the linear range, typical enzyme concentrations were in the range of about 0.05 ng/μl (final conc. in the 5 μl assay volume).
The resulting mixture was incubated 1 h at 22° C. to allow the binding of the biotinylated phosphorylated peptide to the streptavidine-XL665 and the antibodies. Subsequently the amount of phosphorylated substrate was evaluated by measurement of the resonance energy transfer from the anti-mouse-IgG-Eu-Chelate to the streptavidine-XL665.

[3] = tested on: KPL-4 breast cancer cell line; assay: Tumor cell proliferation assay (CellTiter-Glo, 72 h), KPL-4; assay type: cell-based; settings: KPL4, 72h drug exposure
Procedure: Biological Assay 4.0: Tumor Cell Proliferation Assays
Compounds were tested in a cell-based assay that measures the capacity of the compounds to inhibit tumour cell proliferation following a 72h drug exposure. Cell viability is determined using CellTiter-Glow® (CTG, Promega, cat# G7571/2/3). The CellTiter-Glo® Luminescent Cell Viability Assay is a homogeneous method to determine the number of viable cells in culture. Detection is based on using the luciferase reaction to measure the amount of ATP from viable cells. The amount of ATP in cells correlates with cell viability. Within minutes after a loss of membrane integrity, cells lose the ability to synthesize ATP, and endogenous ATPases destroy any remaining ATP; thus the levels of ATP fall precipitously.
For each cell line assayed, cells were plated onto a separate plate for determination of […] at t=0 hour and t=72 hour time points. Following overnight incubation at 37° C., chemiluminescence values for the t=0 samples were determined after adding 10 μl medium and 100 μl CTG solution according to manufacture protocol. Plates for the t=72 hour time points were treated with compounds diluted into growth medium at ten times final concentration added in 10 μL to the cell culture plate. Cells were then incubated for 72 hours at 37° C. Chemiluminescence values for the t=72 hour samples were determined. […] Experiments were controlled using a reference compound as standard.

Sequence of His-tagged human recombinant kinase full-length Akt1 (P31749 whole entry): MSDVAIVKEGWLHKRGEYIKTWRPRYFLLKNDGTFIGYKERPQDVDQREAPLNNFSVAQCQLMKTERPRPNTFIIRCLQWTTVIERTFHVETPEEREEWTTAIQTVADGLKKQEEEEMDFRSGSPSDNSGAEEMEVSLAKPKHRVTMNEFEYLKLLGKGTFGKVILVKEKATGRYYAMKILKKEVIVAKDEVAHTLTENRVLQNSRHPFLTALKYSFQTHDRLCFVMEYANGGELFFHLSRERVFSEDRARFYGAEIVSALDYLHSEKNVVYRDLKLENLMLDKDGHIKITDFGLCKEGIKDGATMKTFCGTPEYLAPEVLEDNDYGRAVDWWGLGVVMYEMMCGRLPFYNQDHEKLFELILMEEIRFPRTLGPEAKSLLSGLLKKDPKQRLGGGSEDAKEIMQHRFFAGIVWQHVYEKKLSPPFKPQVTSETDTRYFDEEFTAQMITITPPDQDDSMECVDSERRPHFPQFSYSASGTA

| IC50 [1] [nM] | IC50 [2] [nM] | IC50 [3] [nM] | SMILES |
| --- | --- | --- | --- |
| 308 | 1140 | 5500 | NC1(c2ccc(-c3nc4ccc(C(=O)NCCO)cn4c3-c3ccccc3)cc2)CCC1 [Example 2-55] |
| 200 | 452 | 3400 | COCCNC(=O)c1ccc2nc(-c3ccc(C4(N)CCC4)cc3)c(-c3ccccc3)n2c1 [Example 2-56] |
| 147 | 493 | 3100 | NC1(c2ccc(-c3nc4ccc(C(=O)NC5CC5)cn4c3-c3ccccc3)cc2)CCC1 [Example 2-57] |
| 193 | 342 | 1900 | NC1(c2ccc(-c3nc4ccc(C(=O)NCC5CC5)cn4c3-c3ccccc3)cc2)CCC1 [Example 2-58] |
| 236 | 257 | 3800 | NC1(c2ccc(-c3nc4ccc(C(=O)NO)cn4c3-c3ccccc3)cc2)CCC1 [Example 2-59] |
| 655 | 31 | 7700 | COC(=O)c1cc(Cl)c2nc(-c3ccc(C4(N)CCC4)cc3)c(-c3ccccc3)n2c1 [Example 2-60] |
| 781 | 1900 | 9400 | CN(C)C(=O)c1ccc2nc(-c3ccc(C4(N)CCC4)cc3)c(-c3ccccc3)n2c1 [Example 2-61] |
| 93 | 376 | 1700 | CCNC(=O)c1ccc2nc(-c3ccc(C4(N)CCC4)cc3)c(-c3ccccc3)n2c1 [Example 2-62] |
| 256 | 734 | 2000 | NC1(c2ccc(-c3nc4ccc(C5CC5)cn4c3-c3ccccc3)cc2)CCC1 [Example 2-63] |
| 203 | 1660 | 3200 | NC1(c2ccc(-c3nc4nc(OCCN5CCCC5=O)ccn4c3-c3ccccc3)cc2)CCC1 [Example 2-64] |
| 3840 | 1070 | 10000 | NC(=O)C1(COc2ccn3c(-c4ccccc4)c(-c4ccc(C5(N)CCC5)cc4)nc3n2)CC1 [Example 2-65] |

The next lines start with the molecule.

| SMILES | IC50 [1] [nM] | IC50 [2] [nM] | IC50 [3] [nM] |
| --- | --- | --- | --- |
| NC1(c2ccc(-c3nc4cc(-c5ccc(F)cc5)ccn4c3-c3ccccc3)cc2)CCC1 [Example 2-34] | 1940 | 989 | 2200 |
| COC(=O)c1ccn2c(-c3ccccc3)c(-c3ccc(C4(N)CCC4)cc3)nc2c1 [Example 2-35] | 975 | 226 | 5000 |
| NC1(c2ccc(-c3nc4cc(C5CC5)ccn4c3-c3ccccc3)cc2)CCC1 [Example 2-37] | 441 | 1640 | 1900 |
| CCc1ccc2nc(-c3ccc(C4(N)CCC4)cc3)c(-c3ccccc3)n2c1 [Example 2-38] | 467 | 260 | 1900 |
| NC1(c2ccc(-c3nc4cc(C(=O)N5CCCC5)ccn4c3-c3ccccc3)cc2)CCC1 [Example 2-42] | 1240 | 19400 | 9200 |
| CCOC(=O)c1cccn2c(-c3ccccc3)c(-c3ccc(C4(N)CCC4)cc3)nc12 [Example 2-43] | 1340 | 62 | 9200 |
| NC1(c2ccc(-c3nc4c(C5CC5)cccn4c3-c3ccccc3)cc2)CCC1 [Example 2-47] | 339 | 140 | 2000 |
| C=Cc1ccc2nc(-c3ccc(C4(N)CCC4)cc3)c(-c3ccccc3)n2c1 [Example 2-48] | 1030 | 300 | 2500 |
| NC1(c2ccc(-c3nc4c(-c5cn[nH]c5)cccn4c3-c3ccccc3)cc2)CCC1 [Example 2-50] | 297 | 99 | 1900 |
| NC1(c2ccc(-c3nc4ccc(C(=O)O)cn4c3-c3ccccc3)cc2)CCC1 [Example 2-51] | 4750 | 91 | 10000 |
| CC(C)NC(=O)c1ccc2nc(-c3ccc(C4(N)CCC4)cc3)c(-c3ccccc3)n2c1 [Example 2-53] | 276 | 1710 | 2000 |
| NC1(c2ccc(-c3nc4ccc(C(=O)NCCF)cn4c3-c3ccccc3)cc2)CCC1 [Example 2-54] | 83 | 423 | 1300 |
